Assay results taken from patent publication US20240350456A1, “COMPOSITIONS AND METHODS FOR DIAGNOSING AND TREATING INFLAMMATORY CONDITIONS” (RUTGERS, THE STATE UNIVERSITY OF NEW JERSEY, priority 2023, published 2024).

Experiments:
[1] = system: human-derived Caco-2 cells; assay: In vitro transwell screening in Caco-2 cells, barrier disrupted by Clostridium difficile toxin (TEER and FITC-dextran permeability); format: cell-based; conditions: for integrated TEER (area under the curve, FIG. 21B): luminal, C. difficile toxin; for TEER, indole metabolites (FIG. 22A): applied to the lumen, TOX
Excerpt: FIG. 20A-20B. In vitro screening of metabolites effective against leaky gut. FIG. 20A, Diagram of the in vitro transwell method used to evaluate efficacy of metabolites in protecting the leaky gut in human-derived Caco-2 cells. The luminal compartment represents the food side, and the basolateral the blood side. FIG. 20B, Transepithelial electrical resistance (TEER) measurements, and FITC-dextran measurements, evaluate the leakiness of the tight junction that regulates the pore (top) and leak (bottom) pathways of the gut. Ions (red), small molecules (blue), FITC-dextran (orange).
FIG. 21A-21D. Efficacy of tryptophan and vitamin B3 metabolites in protecting the gut barrier in vitro. FIG. 21A, TEER measurements of metabolites placed on luminal side of transwells for 72 hours. After 48 hours, the barrier was disrupted by the toxin of clostrium difficile (Cdiff). FIG. 21B, Integrated results of area under the curve using data from FIG. 21A. FIG. 21C, FITC-dextran permeability analysis of metabolites applied luminally. FIG. 21D, FITC-dextran permeability analysis of metabolites applied basolaterally.
FIG. 22A-22B. Efficacy of microbiota-derived indole metabolites in protecting the gut barrier. FIG. 22A, Integrated results of TEER measurements of metabolites placed on luminal side of transwells for 72 hours. After 48 hours, the barrier was disrupted by the toxin of clostrium difficile (Cdiff) FIG. 22B, FITC-dextran permeability analysis of metabolites from FIG. 22A applied luminally.
To perform in vitro screening of the metabolites effective against leaky gut, an in vitro transwell method was used. (FIG. 20A) The efficacy of these metabolites in protecting the leaky gut was analyzed in human-derived Caco-2 cells. Transepithelial electrical resistance (TEER) measurements evaluates the leakiness of the tight junction that regulates the pore (FIG. 20B, top) and leak (FIG. 20B, bottom) pathways of the gut. The higher the TEER, the less permeable the junction is to the movement of ions and small molecules. FITC-dextran is a large polysaccharide with a fluorescent moiety, typically used as a probe to assess the leakiness of the tight junction to large molecules like dextran. The faster the movement of FITC-dextran from lumen to blood, the greater the permeability.
(FIG. 21A) There was no effect of these metabolites on TEER when applied by themselves. After 48 h, the barrier was disrupted by the toxin of a common “bad” bacteria Clostridium difficile (Cdiff). TEER plummeted with this toxin (TOX, red line) compared to control (Veh, blue line). […] (FIG. 21A)

ZO-1 (Tjp1) and Ocln = assay: Intestinal organoids treated with LPS and metabolites: tight junction (TJ) expression, RT-qPCR and immunostaining; format: cell-based, mouse
Method: Intestinal organoids were isolated as previously described (Das et al., 2015; Pearce et al., 2018). Briefly, crypts were isolated from small intestine of conventional house C57BL/6 male mice (Taconic Laboratories, Hudson, NY) by shaking in isolation buffer (2 mM EDTA in PBS), then, crypts were harvested, processed, and suspended in crypt culture medium (CCM), which consisted of advanced DMEM/F12 (Life Technologies, Carlsbad, CA) supplemented with serum-free B27 (1:50; Life Technologies), N2 (1:100; Life Technologies), N-acetylcysteine (1 mM; Sigma-Aldrich, St. Louis, MO), recombinant murine epithelial growth factor (EGF, 50 ng/ml; Peprotech, Rocky Hill, NJ), Noggin (100 ng/ml; Peprotech), R-Spondin (500 ng/ml; Peprotech), Glutamax-I supplement (1:100; Life Technologies), penicillin/streptomycin (500 μg/ml; Life Technologies), and HEPES ([…]; Life Technologies). Crypts were resuspended in 70% Matrigel (density ˜450 crypts per dome, 2 domes per well in 24-well plate) and allowed to solidify at 37° C. for 20 min. CCM (1.5 mL) was then added to each well. Cultures were incubated in a humidified incubator at 37° C., and CCM was changed daily. Intestinal organoid treatment with LPS and metabolites
(§1) We had 2 series of metabolite-treated organoid experiments, i.e., 1) organoid from conventional C57BL6 mice and 2) Ocln KO and littermate WT control as a gift from Prof. Jerrold Turner (Harvard University). […] Seeding is designated as day 0. On day 3 of culture, the existing media in the wells were completely removed before adding treatments. LPS (1 μg/mL) with or without metabolites, i.e., IPA (0.1 mM) (Li et al., 2021), IAM (200 μM) (Vyhlidalova et al., 2020), MNA (12 ng/ml) (Liu et al., 2015), CARN (20 mM) (Boldyrev et al., 2013) or ASA (1 μM) (Erez et al., 2011) were each added in CCM at known physiological concentrations, incubated for 48 hours, thereafter, organoid was harvested for RNA extraction, and paraformaldehyde fixation for immunostaining.
(§2) Total RNA was extracted from the intestinal organoids using a commercially available kit (RNeasy Microkit; Qiagen, MD, Cat. #74004) following manufacturer's instructions. mRNA samples were converted to cDNA using Bio-Rad's iScript Reverse Transcription Supermix for RT-qPCR (Bio-Rad Laboratories, Hercules, CA, Cat. #1708840). cDNA was then used for RT-qPCR (Mx3000P. Stratagene, La Jolla, CA) to analyze several genes using Maxima SYBR Green qPCR Master Mix (Thermo Fisher Scientific, Waltham, MA) and primers (Integrated DNA Technologies, Coralville, IA). Thermal profile for three-step cycling was 10 min at 95° C. for initial denaturation; then 40 cycles of 15 sec at 95° C. for denaturation, 30 sec at 65° C. for annealing, and 30 sec at 75° C. for extension. Primers used are as follows: β-actin (Actb), forward 5′-[…]-3′ (SEQ ID NO: 5), reverse 5′-[…]-3′ (SEQ ID NO: 6); ZO-1 (Tjp1), forward 5′-[…]-3′ (SEQ ID NO: 7), reverse 5′-[…]-3′ (SEQ ID NO: 8), Ocln, forward 5′-[…]-3′ (SEQ ID NO: 9), reverse 5′-[…]-3′ (SEQ ID NO: 10); Lyz1, forward 5′-ATGGCTACCGTGGTGTCAAG-3′ (SEQ ID NO: 11), reverse 5′-CGGTCTCCACGGTTGTAGTT-3′ (SEQ ID NO: 12); Tff3, forward 5′-TAATGCTGTTGGTGGTCCTG-3′ (SEQ ID NO: 13), reverse 5′-CAGCCACGGTTGTTACACTG-3′ (SEQ ID NO: 14). All samples were normalized to β actin expression. Gene expression levels are depicted as fold change relative to the control group.
(§3) Immunocytochemistry followed earlier work (Pearce et al., 2018). Briefly, organoids were extracted from Matrigel by using cell recovery solution (Corning, Cat. No. 354253), processed then fixed in 4% paraformaldehyde for 15 min and dehydrated with 70% ethanol and kept in 4° C. until embedded in paraffin. On the day of embedding, organoids were gently spun down to a pellet (250 g for 5 min), then the supernatant was removed, the pellet resuspended in agarose and embedded in paraffin. […]

[2] = system: Tff3 and Lyz1 (goblet and Paneth cells); assay: Organoids: goblet and Paneth cell transcripts (Tff3, Lyz1) and cell numbers; format: cell-based, mouse; conditions: enteroids
Method: as §1, §2, §3

SMILES	integrated TEER (area under the curve, FIG. 21B) [1]	TEER, indole metabolites (FIG. 22A) [1]	also measured
NC(=O)c1ccc[n+]([C@@H]2O[C@H](CO)[C@@H](O)[C@H]2O)c1 [Nicotinamide.riboside, nicotinamide riboside]	protected the cells from barrier disruption by TOX	–	–
NC(=O)c1ccc[n+]([C@@H]2O[C@H](COP(=O)([O-])OP(=O)(O)OC[C@H]3O[C@@H](n4cnc5c(N)ncnc54)[C@H](O)[C@@H]3O)[C@@H](O)[C@H]2O)c1 [NAD]	protected the cells from barrier disruption by TOX	–	–
O=C(O)c1c[nH]c2ccccc12 [Indole-3-carboxylic.acid, indole-3-carboxylic acid]	–	clearly protective against TOX-induced decreases in TEER	–
O=C(O)CCc1c[nH]c2ccccc12 [Indole-3-propionic.acid, indole-3-propionic acid]	–	clearly protective against TOX-induced decreases in TEER	gene expression of Ocln (ZO-1 (Tjp1) and Ocln; ex vivo, in the presence of the barrier disruptor): increased gene expression of Ocln; TJ expression at the protein and mRNA levels (ZO-1 (Tjp1) and Ocln; in the presence of LPS (1 μg/mL), 48 hr): increased TJ expression; goblet and Paneth cell transcripts and cell numbers [2]: reduced goblet and Paneth cell transcripts as well as cell numbers
O=C(O)C(O)Cc1c[nH]c2ccccc12 (stereo not shown) [Indolelactic.acid, indole-3-lactic acid]	–	clearly protective against TOX-induced decreases in TEER	–
N#CCc1c[nH]c2ccccc12 [Indole-3-acetonitrile]	–	clearly protective against TOX-induced decreases in TEER	–
NC(=O)c1cccnc1 [NAM, nicotinamide]	protected the cells from barrier disruption by TOX	–	–
